Assays:
human IgG = assay: Screening of peptides immobilized on POROS-Aldehyde resin for binding of IgG; details: for Selectivity of IgG binding: immobilized peptide, IgG from human plasma; for Affinity for IgG: immobilized peptides from proteolytic digests
Source text: Identifying Peptide Epitopes with Affinity for IgG. Peptide epitopes with high affinity for IgG may be derived readily from combinatorial libraries and proteolytic digests of protein mixtures. Proteolytic digests of Protein G were immobilized on POROS-Aldehyde resin by Schiff base coupling at their N-termini and the peptides screened for their ability to bind IgG from human plasma. […] In all, four peptides showing high affinity for IgG were isolated from protein G digests by this method. Similar peptides with high affinity for human IgG were also isolated and characterized from cytochrome c ([…]) (SEQ ID NO: 6) and mouse anti-human polyclonal IgG digests ([…]) (SEQ ID NO: 7) using this method. […] Without being bound by theory, it is believed herein that because ethylene glycol assists elution, some hydrophobic effects may also be involved.

IgG = assay: HP-SEC of IgG with free Protein A or Protein G: complex formation and agitation-induced aggregation; assay type: physicochemical; details: IgG:Protein A or G ratio 1:4, RT 2 h
Description: Effect of proteins A and G on aggregation of IgG. High performance size exclusion chromatography (HP-SEC) is used to verify that IgG binds with Protein A or Protein G completely. 50 µL aliquots are injected to a Tosoh TSK G 13000 SWXL Gel 3000 column ([…]×7.8 mm) and separated at a flow rate of 0.5 mL/min. The mobile phase contains 50 mM potassium phosphate and 100 mM K2SO4 at pH 7.1. The relative percentage of IgG monomer and dimer are calculated in triplicate as a percentage of the total chromatographic peak area at 280 nm. Fresh IgG is incubated with free Protein A or free Protein G, respectively, at IgG:Protein A or G ratio of 1:4 at RT for 2 h before being subjected to agitation. […] Effect of agitation of protein A and protein G complexes of IgG. The prior Example 1 is repeated, subjecting the IgG+Protein A or IgG+Protein G to agitation on a shaker at room temperature for 44 h.

TVTEKVIDASELTPAVT (listed as Staphylococcus aureus) [peptide from proteolytic digest of Protein G]
Selectivity of IgG binding (human IgG): comparable to Protein A

GAQGHVVEK (listed as Staphylococcus aureus) [peptide isolated from mouse anti-human polyclonal IgG digests]
Affinity for IgG (human IgG): high affinity

CAQCHTVEK (listed as Staphylococcus aureus) [peptide isolated from cytochrome c digest]
Affinity for IgG (human IgG): high affinity

Protein A: free Protein A, immunoglobulin-binding protein used as polyamino acid ligand
Complex formation with IgG by HP-SEC (IgG): formation of IgG-Protein A and IgG-Protein G complexes

TVTEKPEV (listed as Staphylococcus aureus) [peptide from proteolytic digest of Protein G]
Binding constant for human IgG (human IgG; by HPLC methods): ~1e+06 M⁻¹
Selectivity of IgG binding (human IgG): comparable to Protein A

From US10328148B2, “Protein drug formulations and packages” (Purdue Research Foundation, priority 2010, dated 2019)
